Tests used:
Assay type in all cases: functional
[1] = Growth inhibition of human Hs 578T cells assessed as cell growth at 5X10'-5 M after 48 hrs by sulforhodamine B assay; details: read-out: Activity
[2] = test system: UO-31; assay: Growth inhibition of human UO31 cells assessed as cell growth at 5X10'-9 M after 48 hrs by sulforhodamine B assay; details: UO-31, 48 h, read-out: Activity
[3] = test system: SNB-19; assay: Growth inhibition of human SNB19 cells assessed as cell growth at 5X10'-8 M after 48 hrs by sulforhodamine B assay; details: SNB-19, 48 h, read-out: Activity
[4] = test system: HOP-92; assay: Growth inhibition of human HOP92 cells assessed as cell growth at 5X10'-5 M after 48 hrs by sulforhodamine B assay; details: HOP-92, 48 h, read-out: Activity
[5] = test system: SF-295; assay: Growth inhibition of human SF295 cells assessed as cell growth at 5X10'-7 M after 48 hrs by sulforhodamine B assay; details: SF-295, 48 h, read-out: Activity
[6] = test system: SK-MEL-2; assay: Growth inhibition of human SK-MEL-2 cells assessed as cell growth at 5X10'-9 M after 48 hrs by sulforhodamine B assay; details: SK-MEL-2, 48 h, read-out: Activity
[7] = test system: K562; assay: Growth inhibition of human K562 cells assessed as cell growth at 5X10'-8 M after 48 hrs by sulforhodamine B assay; details: K562, 48 h, read-out: Activity
[8] = test system: OVCAR-8; assay: Growth inhibition of human OVCAR8 cells assessed as cell growth at 5X10'-6 M after 48 hrs by sulforhodamine B assay; details: OVCAR-8, 48 h, read-out: Activity
[9] = test system: PC-3; assay: Growth inhibition of human PC3 cells assessed as cell growth at 5X10'-5 M after 48 hrs by sulforhodamine B assay; details: PC-3, 48 h, read-out: Activity
[10] = test system: SK-MEL-5; assay: Growth inhibition of human SK-MEL-5 cells assessed as cell growth at 5X10'-5 M after 48 hrs by sulforhodamine B assay; details: SK-MEL-5, 48 h, read-out: Activity
[11] = test system: SK-MEL-28; assay: Growth inhibition of human SK-MEL-28 cells assessed as cell growth at 5X10'-8 M after 48 hrs by sulforhodamine B assay; details: SK-MEL-28, 48 h, read-out: Activity
[12] = test system: HL-60(TB); assay: Growth inhibition of human HL-60(TB) cells assessed as cell growth at 5X10'-6 M after 48 hrs by sulforhodamine B assay; details: HL-60, 48 h, read-out: Activity
[13] = test system: SK-OV-3; assay: Growth inhibition of human SKOV3 cells assessed as cell growth at 5X10'-7 M after 48 hrs by sulforhodamine B assay; details: SK-OV-3, 48 h, read-out: Activity
[14] = test system: DU-145; assay: Growth inhibition of human DU145 cells assessed as cell growth at 5X10'-9 M after 48 hrs by sulforhodamine B assay; details: DU-145, 48 h, read-out: Activity
[15] = test system: HOP-92; assay: Growth inhibition of human HOP92 cells assessed as cell growth at 5X10'-9 M after 48 hrs by sulforhodamine B assay; details: HOP-92, 48 h, read-out: Activity
[16] = test system: BT-549; assay: Growth inhibition of human BT549 cells assessed as cell growth at 5X10'-8 M after 48 hrs by sulforhodamine B assay; details: BT-549, 48 h, read-out: Activity
[17] = test system: HL-60(TB); assay: Growth inhibition of human HL-60(TB) cells assessed as cell growth at 5X10'-5 M after 48 hrs by sulforhodamine B assay; details: HL-60, 48 h, read-out: Activity
[18] = test system: OVCAR-3; assay: Growth inhibition of human OVCAR3 cells assessed as cell growth at 5X10'-6 M after 48 hrs by sulforhodamine B assay; details: OVCAR-3, 48 h, read-out: Activity
[19] = test system: TK-10; assay: Growth inhibition of human TK10 cells assessed as cell growth at 5X10'-6 M after 48 hrs by sulforhodamine B assay; details: TK-10, 48 h, read-out: Activity
[20] = test system: CAKI-1; assay: Growth inhibition of human CAKI-1 cells assessed as cell growth at 5X10'-5 M after 48 hrs by sulforhodamine B assay; details: CAKI-1, 48 h, read-out: Activity
[21] = Growth inhibition of human HCC2998 cells assessed as cell growth at 5X10'-9 M after 48 hrs by sulforhodamine B assay; details: HCC 2998, 48 h, read-out: Activity
[22] = test system: SNB-75; assay: Growth inhibition of human SNB75 cells assessed as cell growth at 5X10'-5 M after 48 hrs by sulforhodamine B assay; details: SNB-75, 48 h, read-out: Activity
[23] = test system: SW-620; assay: Growth inhibition of human SW620 cells assessed as cell growth at 5X10'-7 M after 48 hrs by sulforhodamine B assay; details: SW-620, 48 h, read-out: Activity
[24] = test system: IGROV-1; assay: Growth inhibition of human IGROV1 cells assessed as cell growth at 5X10'-5 M after 48 hrs by sulforhodamine B assay; details: IGROV-1, 48 h, read-out: Activity
[25] = test system: SK-MEL-5; assay: Growth inhibition of human SK-MEL-5 cells assessed as cell growth at 5X10'-8 M after 48 hrs by sulforhodamine B assay; details: SK-MEL-5, 48 h, read-out: Activity
[26] = test system: HT-29; assay: Growth inhibition of human HT-29 cells assessed as cell growth at 5X10'-7 M after 48 hrs by sulforhodamine B assay; details: HT-29, 48 h, read-out: Activity
[27] = test system: MDA-MB-468; assay: Growth inhibition of human MDA-MB-468 cells assessed as cell growth at 5X10'-8 M after 48 hrs by sulforhodamine B assay; details: MDA-MB-468, 48 h, read-out: Activity
[28] = test system: HOP-62; assay: Growth inhibition of human HOP62 cells assessed as cell growth at 5X10'-9 M after 48 hrs by sulforhodamine B assay; details: HOP-62, 48 h, read-out: Activity
[29] = test system: SNB-75; assay: Growth inhibition of human SNB75 cells assessed as cell growth at 5X10'-9 M after 48 hrs by sulforhodamine B assay; details: SNB-75, 48 h, read-out: Activity
[30] = test system: OVCAR-4; assay: Growth inhibition of human OVCAR4 cells assessed as cell growth at 5X10'-9 M after 48 hrs by sulforhodamine B assay; details: OVCAR-4, 48 h, read-out: Activity
[31] = test system: SNB-19; assay: Growth inhibition of human SNB19 cells assessed as cell growth at 5X10'-5 M after 48 hrs by sulforhodamine B assay; details: SNB-19, 48 h, read-out: Activity
[32] = test system: SK-MEL-5; assay: Growth inhibition of human SK-MEL-5 cells assessed as cell growth at 5X10'-6 M after 48 hrs by sulforhodamine B assay; details: SK-MEL-5, 48 h, read-out: Activity
[33] = test system: KM12; assay: Growth inhibition of human KM12 cells assessed as cell growth at 5X10'-9 M after 48 hrs by sulforhodamine B assay; details: KM12, 48 h, read-out: Activity
[34] = test system: RXF 393; assay: Growth inhibition of human RXF393 cells assessed as cell growth at 5X10'-9 M after 48 hrs by sulforhodamine B assay; details: RXF 393, 48 h, read-out: Activity
[35] = test system: HL-60(TB); assay: Growth inhibition of human HL-60(TB) cells assessed as cell growth at 5X10'-9 M after 48 hrs by sulforhodamine B assay; details: HL-60, 48 h, read-out: Activity
[36] = test system: A498; assay: Growth inhibition of human A498 cells assessed as cell growth at 5X10'-5 M after 48 hrs by sulforhodamine B assay; details: A498, 48 h, read-out: Activity

SMILES | growth at 50 µM [1] | growth at 0.005 µM [2] | growth at 0.05 µM [3] | growth at 50 µM [4] | growth at 0.5 µM [5] | growth at 0.005 µM [6] | growth at 0.05 µM [7] | growth at 5 µM [8] | growth at 50 µM [9] | growth at 50 µM [10] | growth at 0.05 µM [11] | growth at 5 µM [12] | growth at 0.5 µM [13] | growth at 0.005 µM [14] | growth at 0.005 µM [15] | growth at 0.05 µM [16] | growth at 50 µM [17] | growth at 5 µM [18] | growth at 5 µM [19] | growth at 50 µM [20] | further results
COc1cc(-c2nn(-c3cccc(NC(=O)Nc4cc(C(F)(F)F)cc(C(F)(F)F)c4)c3)cc2-c2ccncc2)ccc1Cl | -10% | 90% | 91% | -72% | 45% | 111% | 99% | -6% | -31% | -93% | 97% | 8% | 95% | 106% | 77% | 102% | 6% | -69% | -34% | -50% | growth at 0.005 µM [21]: 102%; growth at 50 µM [22]: -62%; growth at 0.5 µM [23]: 69%; growth at 50 µM [24]: -54%; growth at 0.05 µM [25]: 95%; growth at 0.5 µM [26]: 70%; growth at 0.05 µM [27]: 85%; growth at 0.005 µM [28]: 100%; growth at 0.005 µM [29]: 94%; growth at 0.005 µM [30]: 95%; growth at 50 µM [31]: -40%; growth at 5 µM [32]: -96%; growth at 0.005 µM [33]: 103%; growth at 0.005 µM [34]: 98%; growth at 0.005 µM [35]: 100%; growth at 50 µM [36]: -89%
COc1cc(-c2nn(-c3cccc(NC(=O)Nc4ccc(Cl)c(Cl)c4)c3)cc2-c2ccncc2)ccc1Cl | 4% | 88% | 95% | -39% | 62% | 109% | 103% | -12% | -22% | -90% | 95% | 6% | 105% | 103% | 75% | 104% | 3% | -34% | 11% | -13% | growth at 0.005 µM [21]: 101%; growth at 50 µM [22]: -15%; growth at 0.5 µM [23]: 89%; growth at 50 µM [24]: -26%; growth at 0.05 µM [25]: 92%; growth at 0.5 µM [26]: 81%; growth at 0.05 µM [27]: 84%; growth at 0.005 µM [28]: 93%; growth at 0.005 µM [29]: 86%; growth at 0.005 µM [30]: 96%; growth at 50 µM [31]: 15%; growth at 5 µM [32]: -86%; growth at 0.005 µM [33]: 103%; growth at 0.005 µM [34]: 97%; growth at 0.005 µM [35]: 111%; growth at 50 µM [36]: -11%
COc1cc(-c2nn(-c3cccc(NC(=O)Nc4cccc(C(F)(F)F)c4)c3)cc2-c2ccncc2)ccc1Cl | -6% | 88% | 97% | -45% | 39% | 101% | 95% | -24% | -22% | -97% | 100% | 4% | 102% | 105% | 93% | 96% | 5% | -42% | 10% | -21% | growth at 0.005 µM [21]: 100%; growth at 50 µM [22]: -30%; growth at 0.5 µM [23]: 79%; growth at 50 µM [24]: -43%; growth at 0.05 µM [25]: 95%; growth at 0.5 µM [26]: 72%; growth at 0.05 µM [27]: 92%; growth at 0.005 µM [28]: 93%; growth at 0.005 µM [29]: 92%; growth at 0.005 µM [30]: 99%; growth at 50 µM [31]: -18%; growth at 5 µM [32]: -97%; growth at 0.005 µM [33]: 104%; growth at 0.005 µM [34]: 100%; growth at 0.005 µM [35]: 90%; growth at 50 µM [36]: -20%

From ChEMBL document CHEMBL2440076, “New triarylpyrazoles as broad-spectrum anticancer agents: design, synthesis, and biological evaluation” (Eur J Med Chem, 2013)
